Measurements as given in the supplement of paper PMC10307832.

Experiments:
Test in all cases: relative viability (nuclei count vs DMSO), 5 days (fraction); higher = more cells survive
Bortezomib + Palbociclib = compound: CC(C)C[C@H](NC(=O)[C@H](Cc1ccccc1)NC(=O)c1cnccn1)B(O)O [Bortezomib] + CC(=O)c1c(C)c2cnc(Nc3ccc(N4CCNCC4)cn3)nc2n(C2CCCC2)c1=O [Palbociclib] (partner 0.5 µM)
Procedure, shortened: (§1)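 After 5 days of treatment, lung cancer cells in 1536-well plates were fixed and stained in a single step (final 0.05% Triton X-100, 1% formaldehyde, 1 ug/ml Hoechst) and their nuclei counted on 4× images. Treatment had been applied by pin tool the day after seeding as one drug alone or as a fixed anchor-drug dose with five library-drug doses (not always all listed) in √10 steps. Relative viability is the nuclei count of treated wells divided by that of vehicle wells, and values are medians of duplicate plates.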

Bortezomib + AZD7762 = compound: CC(C)C[C@H](NC(=O)[C@H](Cc1ccccc1)NC(=O)c1cnccn1)B(O)O [Bortezomib] + NC(=O)Nc1cc(-c2cccc(F)c2)sc1C(=O)N[C@H]1CCCNC1 [AZD7762] (partner 0.2 µM)
Procedure, shortened: as §1

[1] = compound: CC1=CC(=NN1)NC2=CC(=NC(=N2)/C=C/C3=CC=CC=C3)N4CCN(CC4)C + CC(C)C[C@H](NC(=O)[C@H](Cc1ccccc1)NC(=O)c1cnccn1)B(O)O [Bortezomib] (partner 0.002 µM)
Procedure, shortened: as §1

Obatoclax + Decitabine = compound: COC1=CC(c2cc3ccccc3[nH]2)=N/C1=C\c1[nH]c(C)cc1C [Obatoclax] + Nc1ncn([C@H]2C[C@H](O)[C@@H](CO)O2)c(=O)n1 [Decitabine] (partner 2 µM)
Procedure, shortened: as §1

Cell Line | relative viability (Bortezomib + Palbociclib; first compound 0.0002 µM) | relative viability (Bortezomib + Palbociclib; first compound 0.000632 µM) | relative viability (Bortezomib + Palbociclib; first compound 0.002 µM) | relative viability (Bortezomib + Palbociclib; first compound 0.006325 µM) | relative viability (Bortezomib + Palbociclib; first compound 0.02 µM) | relative viability (Bortezomib + AZD7762; first compound 0.0002 µM) | relative viability (Bortezomib + AZD7762; first compound 0.000632 µM) | relative viability (Bortezomib + AZD7762; first compound 0.002 µM) | relative viability (Bortezomib + AZD7762; first compound 0.006325 µM) | relative viability (Bortezomib + AZD7762; first compound 0.02 µM) | relative viability ([1]; first compound 0.08 µM) | relative viability ([1]; first compound 0.253 µM) | relative viability ([1]; first compound 0.8 µM) | relative viability ([1]; first compound 2.53 µM) | relative viability ([1]; first compound 8 µM) | relative viability (Obatoclax + Decitabine; first compound 0.01 µM) | relative viability (Obatoclax + Decitabine; first compound 0.03162 µM) | relative viability (Obatoclax + Decitabine; first compound 0.1 µM) | relative viability (Obatoclax + Decitabine; first compound 0.3162 µM) | relative viability (Obatoclax + Decitabine; first compound 1 µM)
NCI-H838 | 0.211 | 0.23 | 0.191 | 0.136 | 0.103 | 0.878 | 0.925 | 0.9 | 0.682 | 0.622 | 0.759 | 0.802 | 0.705 | 0.168 | 0.0832 | 0.471 | 0.412 | 0.511 | 0.338 | 0.32
NCI-H1355 | 0.394 | 0.4 | 0.398 | 0.24 | 0.138 | 0.794 | 0.721 | 0.922 | 0.293 | 0.133 | 1.16 | 1.17 | 1.16 | 0.885 | 0.168 | 0.368 | 0.347 | 0.338 | 0.334 | 0.335
NCI-H1437 | 0.305 | 0.35 | 0.319 | 0.135 | 0.118 | 1.09 | 1.11 | 1.04 | 0.496 | 0.194 | 0.621 | 0.554 | 0.656 | 0.247 | 0.0909 | 0.626 | 0.426 | 0.601 | 0.537 | 0.43
NCI-H1651 | 0.505 | 0.504 | 0.401 | 0.113 | 0.103 | 0.451 | 0.474 | 0.485 | 0.507 | 0.131 | 0.946 | 0.892 | 0.865 | 0.876 | 0.448 | 0.582 | 0.338 | 0.434 | 0.355 | 0.495
NCI-H1666 | 0.62 | 0.699 | 0.608 | 0.569 | 0.472 | 0.849 | 0.935 | 0.817 | 0.592 | 0.333 | 0.892 | 0.925 | 0.872 | 0.55 | 0.215 | 0.731 | 0.688 | 0.68 | 0.586 | 0.691
NCI-H1734 | 0.38 | 0.342 | 0.266 | 0.108 | 0.0922 | 0.563 | 0.541 | 0.57 | 0.116 | 0.0989 | 0.814 | 0.999 | 0.731 | 0.234 | 0.13 | 0.504 | 0.467 | 0.511 | 0.491 | 0.506
NCI-H1755 | 0.426 | 0.438 | 0.452 | 0.263 | 0.248 | 0.442 | 0.425 | 0.508 | 0.287 | 0.2 | 0.913 | 1.01 | 0.956 | 0.63 | 0.195 | 0.684 | 0.617 | 0.697 | 0.655 | 0.662
NCI-H1792 | 0.628 | 0.593 | 0.494 | 0.637 | 0.375 | 0.657 | 0.693 | 0.602 | 0.344 | 0.0353 | 0.863 | 0.999 | 0.919 | 0.84 | 0.0942 | 0.58 | 0.469 | 0.537 | 0.427 | 0.581
NCI-H1915 | 0.476 | 0.519 | 0.54 | 0.118 | 0.0404 | 0.751 | 0.726 | 0.715 | 0.163 | 0.0511 | 1.01 | 1.04 | 1.01 | 0.555 | 0.54 | 0.268 | 0.267 | 0.24 | 0.256 | 0.272
NCI-H1975 | 0.663 | 0.517 | 0.138 | 0.1 | 0.106 | 0.727 | 0.652 | 0.319 | 0.172 | 0.194 | 0.403 | 0.408 | 0.31 | 0.159 | 0.109 | 0.476 | 0.365 | 0.322 | 0.38 | 0.278
NCI-H1993 | 0.569 | 0.737 | 0.666 | 0.369 | 0.359 | 0.838 | 0.877 |  | 0.333 | 0.324 | 1.08 |  | 1.2 | 0.781 | 0.391 | 0.659 | 0.545 | 0.618 | 0.611 | 0.612
NCI-H2085 | 0.464 | 0.475 | 0.458 | 0.253 | 0.232 | 1.04 | 0.907 | 1.07 | 0.881 | 0.225 | 1.06 | 1.05 | 1.07 | 0.651 | 0.333 | 0.531 | 0.484 | 0.524 | 0.499 | 0.472
NCI-H2087 | 0.218 | 0.246 | 0.156 | 0.0525 | 0.036 | 1.3 | 1.23 | 1.19 | 0.0709 | 0.0403 | 0.792 | 1.03 | 0.818 | 0.648 | 0.11 | 0.215 | 0.254 | 0.34 | 0.135 | 0.142
NCI-H2126 | 0.365 | 0.349 | 0.369 | 0.328 | 0.208 | 1 | 1.01 | 0.968 | 0.942 | 0.516 | 1.07 | 1.14 | 1.19 | 1.09 | 1.02 | 0.56 | 0.536 | 0.574 | 0.561 | 0.587
NCI-H2347 | 0.401 | 0.497 | 0.406 | 0.292 | 0.231 | 0.888 | 0.695 | 0.73 | 0.553 | 0.276 | 0.829 | 1.21 | 1.04 | 1.32 | 0.461 | 0.607 | 0.561 | 0.579 | 0.563 | 0.653
NCI-H2405 | 0.503 | 0.547 | 0.349 | 0.143 | 0.141 | 0.699 | 0.714 | 0.919 | 0.165 | 0.159 | 0.963 | 0.819 | 1.02 | 0.865 | 0.958 | 0.769 | 0.717 |  | 0.762 | 0.63
